{
  "source": "patent US20130052646A1",
  "about": "“POSITIVE AND NEGATIVE […] FOR USE IN TH[…]” (Mascoma Corporation, priority 2009, published 2013)",
  "assay_type_in_all_cases": "cell-based, Clostridium thermocellum",
  "key": {"[1]": {"tested_on": "C. thermocellum", "assay": "Plating on media containing 5-FOA (pyrF negative selection)", "conditions": "for colony survival after plating on 5-FOA: rich media containing 500 μg of 5-FOA; for growth on media containing 5-FOA: FIG. 8", "description": "Plasmid pMU482 was transformed into the wild type C. thermocellum strain 1313 and selected on a rich media containing thyamphenicol (at the concentration of 6 μg/ml) to select for cells containing the cat marker encoded on the plasmid. A schematic displaying the creation of the knockout vector is depicted in FIG. 2. Several colonies that resulted from the selection scheme were selected for PCR analysis to confirm that the plasmid had been transformed into the cells. A transformed colony was diluted into liquid, rich medium containing thyamphenicol at the concentration of 6 μg/ml and grown overnight. A culture containing pMU102 (control plasmid) was also grown similarly. The next day, each culture was serially diluted by ten fold (up to 10^−3) using fresh, rich media and 100 μL of the undiluted culture. Each of the dilutions were plated on rich media containing 500 μg of 5-FOA. A schematic of this plating strategy is depicted in FIG. 3.\nThe plasmid-free C. thermocellum ΔpyrF strain created above was tested to confirm that negative selection could be appropriately applied. Cells were grown and plated using media containing the toxic analog 5-fluoroorotic acid (5-FOA). The protein product of the pyrF gene converts 5-FOA into a toxic compound. Thus, the C. thermocellum ΔpyrF strain should be resistant to 5-FOA, but the wild type or a complemented strain should be susceptible to 5-FOA and unable to grow."}, "[2]": {"tested_on": "C. thermocellum", "assay": "Plating on 8-azahypoxanthine (hpt negative selection, complementation)", "conditions": "500 ug/ml 8-AzaH, FIG. 26", "description": "Plasmid pMU1657 was transformed into the wild type C. thermocellum strain 1313 and selected for on chloramphenicol. Several colonies were selected and the transformed plasmid was verified by PCR. A colony was diluted into C. thermocellum growth medium and grown overnight. The following morning the dilution closest to an O.D of ˜1.0 was serially diluted and plated on defined medium containing 500 ug/ml 8-azahypoxanthine. Two days later, colonies were observed on the dilution representing 10^−3. Six colonies were selected and PCR screens were performed to verify that the hpt gene had been deleted from the chromosome. After PCR amplification, the expected size of the wild type product having no deletion is 3380 bp and the expected size of the hpt deletion is 2820 bp. […] The colonies were subsequently screened by PCR amplification to confirm that the plasmid had been cured (or lost). In FIG. 25, lane (P) represents the plasmid control that is 3750 bp in size. Colonies that have lost the plasmid would have no product migrating in the lane. The lack of product in lanes 1-6 representing the six different colonies confirm that the plasmid had been cured.\nTo provide stronger support for this conclusion, the knockout plasmid was reintroduced to look for complementation of the phenotype. […]"}, "[3]": {"tested_on": "C. thermocellum", "assay": "Plating in the presence of FUDR (tdk negative selection)", "conditions": "FIG. 18", "description": "To this end, the C. thermocellum pyrF::tdk strain and the control C. thermocellum ΔpyrF strain were plated in the presence of 10 μg/ml FUDR. For each culture, a 10 dilution was used for the plating."}, "[4]": {"tested_on": "C. thermocellum", "assay": "Plating of cured Δhpt strain on thiamphenicol", "conditions": "plasmid-cured Δhpt strain; after 5 days", "description": "To verify this, the new strain was grown up overnight and plated on thiamphenicol."}, "[5]": {"tested_on": "C. thermocellum", "assay": "Growth in rich medium with uracil supplementation", "conditions": "ΔpyrF strain; rich medium with additional 40 μg/ml uracil; 55° C.", "description": "Growth rate measurements were performed in a 200 μl volume in a 96-well plate at 55° C. The optical density at 600 nm was read by a Powerwave XS platereader customized by the manufacturer to incubate up to 68° C. (BioTek). The plates were shaken continuously and read at three minute intervals. Each sample was measured in quadruplicate. The specific growth rate (0 was determined by measuring the slope of the natural log-transformed OD readings. A two hour sliding window of OD readings between 0.08 and 1.00 were used for determination of maximum rate μmax. In all cases, the R-squared value was greater than 0.99.\nThe growth of the pta::gapDHp-cat strain was compared to the wt and ΔpyrF strains in rich medium, with and without uracil supplementation. […] End product analysis was performed on batch fermentations started at pH 7.0 with 5 g/l cellobiose as the primary carbon source under anaerobic conditions with a nitrogen atmosphere and 80 ml working volume. After 48 hours of fermentation the wt and ΔpyrF strain produced about 1 g/l of acetic acid whereas the acetic acid production of the pta::gapDHp-cat was indistinguishable from background levels (average 0.03 g/l)."}},
  "data": [
    {"smiles": "O=C(O)c1[nH]c(=O)[nH]c(=O)c1F", "note": "[5-FOA, 5-fluoroorotic acid]", "values": [
      {"measurement": "colony survival after plating on 5-FOA", "setting": "[1]; colonies containing wild-type pyrF", "result": "did not survive"},
      {"measurement": "colony survival after plating on 5-FOA", "setting": "[1]; colonies that contained the pyrF disruption", "result": "visible"},
      {"measurement": "growth on media containing 5-FOA", "setting": "[1]; plasmid-free ΔpyrF strain (also with control plasmid pMU102)", "result": "able to grow"},
      {"measurement": "growth on media containing 5-FOA", "setting": "[1]; ΔpyrF strain transformed with complementing plasmid pMU612 expressing pyrF", "result": "no growth"}
    ]},
    {"smiles": "O=c1[nH]cnc2nn[nH]c12", "note": "[8-azahypoxanthine]", "values": [
      {"measurement": "sensitivity to 8-azahypoxanthine", "setting": "[2]; Δhpt strain containing complementing plasmid pMU1657", "result": "sensitivity comparable to wild type levels"},
      {"measurement": "sensitivity to 8-azahypoxanthine", "setting": "[2]; Δhpt strain", "result": "completely insensitive"}
    ]},
    {"smiles": "O=c1[nH]c(=O)n([C@H]2C[C@H](O)[C@@H](CO)O2)cc1F", "note": "[FUDR, fluorodeoxyuridine]", "values": [
      {"measurement": "growth in the presence of FUDR", "setting": "[3]; control ΔpyrF strain without tdk, 10 μg/ml FUDR", "result": "survived"},
      {"measurement": "growth in the presence of FUDR", "setting": "[3]; pyrF::tdk strain, 10 μg/ml FUDR with addition of thymidine", "result": "did grow"},
      {"measurement": "growth in the presence of FUDR", "setting": "[3]; pyrF::tdk strain, 10 μg/ml FUDR", "result": "did not grow"}
    ]},
    {"smiles": "CS(=O)(=O)c1ccc([C@@H](O)[C@@H](CO)NC(=O)C(Cl)Cl)cc1", "note": "[thiamphenicol]", "values": [
      {"measurement": "resistant colonies on thiamphenicol", "setting": "[4]", "result": "no thiamphenicol resistant colonies were observed"}
    ]},
    {"smiles": "O=c1cc[nH]c(=O)[nH]1", "note": "[uracil]", "values": [
      {"measurement": "effect of uracil supplementation on growth", "setting": "[5]", "result": "eliminated the growth defect"}
    ]}
  ]
}
